In article PMC6825211 (Nature Communications, 2019):
Several values for one entry are separate records, joined by “and”; a condition that tells them apart may be missing. Equal values may be shown once.

Assays:
[1] = test system: isolated islets from db/db mice; experiment: Ex vivo pMST1, BIM (western blot) and nuclear PDX1 in isolated db/db islets; assay type: cell-based, mouse; conditions: 10 μM, 24 h ex vivo
Source text: mouse islets ex vivo. Representative double-stainings for PDX1 (green) and insulin (red) shown from isolated islets from 10-week old heterozygous db/+ mice or db/db littermates […]
Representative microscopical images are shown. White arrow point to PDX1 deficient nuclei in db/db mouse islets. Related to Figure

[2] = test system: MLD–STZ C57BL/6J mice; experiment: MLD–STZ model: β-cell mass; assay type: in vivo, mouse; design: BCM: unit not given here
Description: (§1) C57Bl/6J mice were injected with 40 mg/kg streptozotocin or citrate buffer for 5 consecutive days. […] In d, basal glucose values were normalized to 100%. e Insulin secretion measured from retro-orbital blood draw during an ipGTT measured before (0 min) and 15 min after glucose injection; data are expressed as the ratio of secreted insulin at 15 min/0 min (stimulatory index). f The ratio of secreted insulin and glucose is calculated at fed state. g–i Mice were killed at day 35. g β-cell mass (given as percentage of the whole pancreatic section from ten sections spanning the width of the pancreas) and quantitative analyses from triple staining for h TUNEL or i Ki67, insulin, and DAPI expressed as percentage of TUNEL- or Ki67-positive β-cells ±SEM. An average number of 2331 (h), or 26369 (i) β-cells were counted. n = 9 mice/group for (a); n = 4–12 for (b); n = 5–15 for (c) and (d); n = 12–19 for (e); n = 8–14 for (f); n = 4–9 for (g); n = 4–11 for (h); and n = 6–11 mice/groupfor (i); all from three independent experiments).
For morphometric data, ten sections (spanning the width of the pancreas) per mouse were analyzed. Pancreatic tissue area and insulin-positive area were determined by computer-assisted measurements by using a Nikon MEA53200 (Nikon GmbH, Dusseldorf, Germany) microscope, and images were acquired by using NIS-Elements software (Nikon). β-cell mass was obtained by multiplying the β-cell fraction by the weight of the pancreas.

[3] = test system: MLD–STZ C57BL/6J mice; experiment: MLD–STZ model: intraperitoneal glucose tolerance test (ipGTT); assay type: in vivo, mouse; design: ipGTT glucose / AUC ipGTT: unit not given here
Description: as §1
(§2) For intraperitoneal glucose tolerance tests, mice were fasted 12 h overnight and injected i.p. with glucose (40%; B.Braun, Melsungen, Germany) at a dose of 1 g/kg body weight. Blood samples were obtained at time points 0, 15, 30, 60, 90, and 120 min for glucose measurements by using a Glucometer. For i.p. insulin tolerance tests, mice were injected with 0.75 U/kg body weight recombinant human insulin (Novolin, Novo Nordisk) after 4–5-h fasting, and glucose concentration was determined with the Glucometer. Insulin secretion was measured before (0 min) and after (15 and 30 min) i.p. injection of glucose (2 g/kg) and measured by using ultrasensitive mouse Elisa kit (ALPCO Diagnostics, Salem, NH).

[4] = test system: obese diabetic Lepr db/db mice; experiment: db/db model: ipITT; assay type: in vivo, mouse; design: ipITT: unit not given here; conditions: for ipITT normalized to 100: MEAN
Source text: Data are representative of six mice per group (n = 6 for (a–f)). g–j Mice were killed at day 31. g β-cell mass (given as percentage of the whole pancreatic section from ten sections spanning the width of the pancreas; n = 5 mice/group) and quantitative analyses from triple stainings for (h) TUNEL, (i) Ki67, (j) pHH3, and (k) nuclear PDX1 expression, insulin, and DAPI expressed as percentage of TUNEL-, Ki67-, pHH3-, or nuclear PDX1-positive β-cells ± SEM. An average number of 13667 (h), 5937 (i), 7108 (j), or 4330 (k) β-cells were counted from n = 3–5 (h, i, k) or n = 5–6 (j) mice/group.
as §2

[5] = test system: Raw264.7 cells; experiment: RT-PCR of LPS-induced TNFα, IL-1β, IL-6 expression; conditions: 100 ng/mL LPS 4 h
Source text: One microgram of cDNA of each treatment sample was synthesized by using SuperScript III First-Strand Synthesis (Invitrogen). Taqman mouse primers were purchased from ThermoFisher: TNFα (Catalog No. Mm00443258_m1), IL-6 (Catalog No. Mm00446190_m1), IL-1β (Catalog No. Mm00434228_m1), and GAPDH as endogenous housekeeping control (Catalog No. Mm99999915_g1). The qPCR reaction was set up for TNFα, IL-6, IL-1β, and GAPDH individually, with technical triplicates for each gene per treatment sample and performed by the Applied Biosystems ViiA 7 real-time PCR system. The ∆∆CT method was used to analyze the relative changes in gene expression.

[6] = MALDI imaging mass spectrometry of pancreas sections; assay type: in vivo, mouse
Description: MALDI imaging mass spectrometry (MALDI imaging MS) was performed on pancreas, liver, colon, stomach, kidney, heart, and brain tissue sections from WT C57BL/6J and db/db mice in triplicates. […] For MALDI imaging MS, 10-µm cryo sections were cut with a cryo-microtome (CM1860, Leica Biosystems, Nussloch, Germany) and mounted on indium–tin-coated conductive glass slides (Bruker Daltonics, Bremen, Germany). The matrix (HCCA in 50% ACN, 0.5% TFA) was applied with the ImagePrep Device (Bruker Daltonics), and MALDI spectra were recorded by using a Bruker autofleX speed mass spectrometer in positive reflector mode with a mass range of 400–1400 m/z. A large-size laser diameter was used with a lateral resolution of 100 µm, and 500 laser shots per pixel were accumulated with the random walk option set to 100 shots per position. […] Standards were spotted on mice liver cryo-sections and the spectral intensity was plotted.

[7] = molecular target: EPH-A2 (Homo sapiens, UniProt P29317); experiment: Nanosyn kinase profiling, mobility shift assay; conditions: read-out: % inhibition by neratinib
[8] = molecular target: CK1-EPSILON (Homo sapiens, UniProt P49674); experiment: Nanosyn kinase profiling, mobility shift assay; conditions: read-out: % inhibition by neratinib
[9] = molecular target: SRC (Homo sapiens, UniProt P12931); experiment: Nanosyn kinase profiling, mobility shift assay; conditions: read-out: % inhibition by neratinib
[10] = molecular target: IKK-BETA (Homo sapiens, UniProt O14920); experiment: Nanosyn kinase profiling, mobility shift assay; conditions: read-out: % inhibition by neratinib
[11] = molecular target: AMP-A1B1G1 (Homo sapiens, UniProt Q13131); experiment: Nanosyn kinase profiling, mobility shift assay; conditions: read-out: % inhibition by neratinib
[12] = molecular target: CDK1 (Homo sapiens, UniProt P06493); experiment: Nanosyn kinase profiling, mobility shift assay; conditions: read-out: % inhibition by neratinib
CDK1, sequence (P06493 whole entry): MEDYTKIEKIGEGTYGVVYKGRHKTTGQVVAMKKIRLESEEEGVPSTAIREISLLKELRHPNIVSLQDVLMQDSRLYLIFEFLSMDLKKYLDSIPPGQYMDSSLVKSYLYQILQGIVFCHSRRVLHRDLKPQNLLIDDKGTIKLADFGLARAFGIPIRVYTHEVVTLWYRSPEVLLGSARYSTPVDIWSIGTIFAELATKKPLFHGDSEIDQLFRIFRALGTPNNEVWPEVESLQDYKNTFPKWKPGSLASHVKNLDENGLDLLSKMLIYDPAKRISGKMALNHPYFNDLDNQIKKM
CDK1, sequence (P14635 whole entry partner): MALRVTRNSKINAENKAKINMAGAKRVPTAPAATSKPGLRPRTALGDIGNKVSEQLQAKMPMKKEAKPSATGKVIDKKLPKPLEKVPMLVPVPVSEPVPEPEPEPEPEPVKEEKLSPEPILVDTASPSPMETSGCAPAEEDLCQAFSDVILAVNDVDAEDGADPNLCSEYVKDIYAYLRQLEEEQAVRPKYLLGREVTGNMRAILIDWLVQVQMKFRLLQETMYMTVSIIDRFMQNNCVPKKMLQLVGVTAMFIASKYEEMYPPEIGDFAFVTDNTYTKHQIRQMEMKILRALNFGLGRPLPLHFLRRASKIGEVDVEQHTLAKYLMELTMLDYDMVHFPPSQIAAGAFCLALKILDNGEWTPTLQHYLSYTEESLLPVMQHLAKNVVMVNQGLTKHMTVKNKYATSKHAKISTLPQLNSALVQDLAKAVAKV

CK1-EPSILON, sequence (P49674 whole entry): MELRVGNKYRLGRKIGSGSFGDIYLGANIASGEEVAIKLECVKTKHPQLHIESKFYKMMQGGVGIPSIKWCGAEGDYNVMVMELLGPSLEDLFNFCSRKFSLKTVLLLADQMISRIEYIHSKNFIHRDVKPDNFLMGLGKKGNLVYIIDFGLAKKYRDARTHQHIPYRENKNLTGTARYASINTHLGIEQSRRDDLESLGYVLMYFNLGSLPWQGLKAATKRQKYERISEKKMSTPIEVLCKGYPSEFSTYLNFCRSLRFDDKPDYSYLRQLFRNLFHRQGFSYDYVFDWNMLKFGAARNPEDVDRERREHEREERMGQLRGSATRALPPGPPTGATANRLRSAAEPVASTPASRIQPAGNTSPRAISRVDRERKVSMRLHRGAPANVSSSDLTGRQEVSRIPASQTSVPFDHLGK
EPH-A2, sequence (P29317 24-976): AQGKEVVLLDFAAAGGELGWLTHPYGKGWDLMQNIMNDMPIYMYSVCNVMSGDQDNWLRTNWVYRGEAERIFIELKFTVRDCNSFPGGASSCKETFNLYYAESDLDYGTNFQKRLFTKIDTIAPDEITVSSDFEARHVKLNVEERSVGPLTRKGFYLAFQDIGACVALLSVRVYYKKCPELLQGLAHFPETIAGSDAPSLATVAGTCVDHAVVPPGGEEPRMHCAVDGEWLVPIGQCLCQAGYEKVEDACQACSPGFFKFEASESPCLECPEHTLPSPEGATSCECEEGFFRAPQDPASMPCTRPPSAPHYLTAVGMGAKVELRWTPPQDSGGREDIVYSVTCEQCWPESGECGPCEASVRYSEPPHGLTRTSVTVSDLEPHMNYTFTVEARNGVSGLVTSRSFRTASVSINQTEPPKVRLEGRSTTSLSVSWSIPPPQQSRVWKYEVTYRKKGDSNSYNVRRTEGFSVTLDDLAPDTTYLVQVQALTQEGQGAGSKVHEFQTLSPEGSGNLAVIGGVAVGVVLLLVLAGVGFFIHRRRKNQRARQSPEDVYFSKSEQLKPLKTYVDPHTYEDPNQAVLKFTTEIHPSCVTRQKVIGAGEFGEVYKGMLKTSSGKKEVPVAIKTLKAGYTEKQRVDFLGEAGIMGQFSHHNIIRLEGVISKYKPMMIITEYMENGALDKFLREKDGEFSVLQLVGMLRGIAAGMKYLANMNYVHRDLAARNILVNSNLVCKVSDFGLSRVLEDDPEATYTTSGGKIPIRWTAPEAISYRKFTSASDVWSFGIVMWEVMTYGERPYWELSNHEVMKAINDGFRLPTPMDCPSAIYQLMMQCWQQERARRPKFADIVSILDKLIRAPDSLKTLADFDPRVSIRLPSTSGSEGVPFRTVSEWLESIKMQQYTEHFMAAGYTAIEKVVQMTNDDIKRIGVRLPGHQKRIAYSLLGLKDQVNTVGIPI
SRC, sequence (P12931 whole entry, species assumed): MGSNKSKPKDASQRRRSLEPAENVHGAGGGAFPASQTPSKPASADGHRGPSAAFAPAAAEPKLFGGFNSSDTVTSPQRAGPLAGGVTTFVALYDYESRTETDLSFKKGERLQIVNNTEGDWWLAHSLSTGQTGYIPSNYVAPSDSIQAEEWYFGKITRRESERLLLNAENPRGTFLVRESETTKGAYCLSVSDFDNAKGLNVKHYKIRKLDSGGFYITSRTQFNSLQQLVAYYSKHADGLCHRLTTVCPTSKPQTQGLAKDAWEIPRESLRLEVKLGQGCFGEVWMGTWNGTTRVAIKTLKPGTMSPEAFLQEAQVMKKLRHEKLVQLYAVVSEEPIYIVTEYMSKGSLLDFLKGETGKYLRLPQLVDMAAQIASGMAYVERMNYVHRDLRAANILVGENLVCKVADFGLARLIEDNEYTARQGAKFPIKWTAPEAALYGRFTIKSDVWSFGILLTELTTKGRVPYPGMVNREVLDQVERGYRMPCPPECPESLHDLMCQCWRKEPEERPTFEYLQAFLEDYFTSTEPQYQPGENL
AMP-A1B1G1, sequence (Q13131 whole entry): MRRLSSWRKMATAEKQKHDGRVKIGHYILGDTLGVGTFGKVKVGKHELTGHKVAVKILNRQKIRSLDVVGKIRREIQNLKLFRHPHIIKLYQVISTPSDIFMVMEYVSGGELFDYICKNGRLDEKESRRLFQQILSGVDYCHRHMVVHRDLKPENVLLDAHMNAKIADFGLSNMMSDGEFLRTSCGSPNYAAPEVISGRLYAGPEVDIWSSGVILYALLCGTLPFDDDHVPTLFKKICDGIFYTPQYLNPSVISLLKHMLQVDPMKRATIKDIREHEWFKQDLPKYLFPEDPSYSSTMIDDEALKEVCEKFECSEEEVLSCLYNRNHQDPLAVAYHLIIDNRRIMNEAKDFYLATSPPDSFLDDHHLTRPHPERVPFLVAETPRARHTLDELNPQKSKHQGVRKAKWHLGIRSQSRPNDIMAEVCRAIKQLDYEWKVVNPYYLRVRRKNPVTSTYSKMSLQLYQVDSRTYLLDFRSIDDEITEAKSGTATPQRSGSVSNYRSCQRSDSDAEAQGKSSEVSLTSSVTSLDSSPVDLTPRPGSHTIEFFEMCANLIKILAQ
AMP-A1B1G1, sequence (Q9Y478 whole entry partner): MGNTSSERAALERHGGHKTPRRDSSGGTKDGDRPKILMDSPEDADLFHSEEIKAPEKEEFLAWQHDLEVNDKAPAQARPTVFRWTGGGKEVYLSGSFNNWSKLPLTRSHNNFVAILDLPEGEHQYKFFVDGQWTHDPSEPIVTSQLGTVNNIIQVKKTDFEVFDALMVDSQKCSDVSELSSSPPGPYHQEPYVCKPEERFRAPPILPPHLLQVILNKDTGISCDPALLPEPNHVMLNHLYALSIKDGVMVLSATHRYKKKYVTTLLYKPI
AMP-A1B1G1, sequence (P54619 whole entry partner): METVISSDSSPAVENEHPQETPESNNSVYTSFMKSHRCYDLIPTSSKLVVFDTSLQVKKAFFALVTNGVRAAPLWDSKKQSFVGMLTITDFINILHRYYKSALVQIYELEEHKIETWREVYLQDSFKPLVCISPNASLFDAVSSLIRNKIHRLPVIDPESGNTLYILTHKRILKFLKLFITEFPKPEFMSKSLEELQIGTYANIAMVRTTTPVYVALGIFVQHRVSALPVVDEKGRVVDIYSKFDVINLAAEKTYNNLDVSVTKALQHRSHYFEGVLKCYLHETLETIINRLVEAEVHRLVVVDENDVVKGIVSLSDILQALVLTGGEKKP
IKK-BETA, sequence (O14920 whole entry): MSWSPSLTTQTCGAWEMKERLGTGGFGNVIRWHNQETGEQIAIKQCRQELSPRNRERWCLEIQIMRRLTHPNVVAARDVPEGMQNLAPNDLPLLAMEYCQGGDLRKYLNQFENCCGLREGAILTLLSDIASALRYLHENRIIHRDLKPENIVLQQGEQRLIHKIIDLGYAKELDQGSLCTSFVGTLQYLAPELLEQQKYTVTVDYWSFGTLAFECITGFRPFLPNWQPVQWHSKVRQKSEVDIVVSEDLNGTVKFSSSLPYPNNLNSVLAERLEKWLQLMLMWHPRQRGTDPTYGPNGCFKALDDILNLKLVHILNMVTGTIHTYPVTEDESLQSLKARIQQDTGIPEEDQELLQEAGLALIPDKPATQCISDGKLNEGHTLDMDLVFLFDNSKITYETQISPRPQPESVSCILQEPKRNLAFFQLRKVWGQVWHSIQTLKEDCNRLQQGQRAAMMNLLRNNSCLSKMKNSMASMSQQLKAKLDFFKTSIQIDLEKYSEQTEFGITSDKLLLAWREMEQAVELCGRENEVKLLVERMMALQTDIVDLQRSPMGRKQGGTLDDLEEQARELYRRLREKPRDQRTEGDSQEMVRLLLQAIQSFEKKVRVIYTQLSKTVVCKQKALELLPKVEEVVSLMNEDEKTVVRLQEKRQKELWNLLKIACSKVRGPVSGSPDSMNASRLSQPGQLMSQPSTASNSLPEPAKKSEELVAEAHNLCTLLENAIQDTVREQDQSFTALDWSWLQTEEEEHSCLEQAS

## CCOc1cc2ncc(C#N)c(Nc3ccc(OCc4ccccn4)c(Cl)c3)c2cc1NC(=O)/C=C/CN(C)C [neratinib]
[1]
  MST1 activation and proapoptotic BIM in db/db islets: reversed
  nuclear PDX1 expression in db/db islets: enhanced nuclear PDX1 expression
[2]; NeraCtr group (no STZ), MEAN
  BCM: 1.179
[2]; NeraCtr group (no STZ), individual mice
  BCM: 1.212 and 1.511 and 1.035 and 0.9571
[2]; NeraSTZ group, MEAN
  BCM: 0.6212
[2]; NeraSTZ group, individual mice
  BCM: 1.314 and 0.4366 and 0.7768 and 0.269 and 0.7149 and 0.2555 and 0.5691 and 0.3836 and 0.8706
[2]; STZ mice, day 35
  β-cell mass: restored β-cell mass
[3]; 5 mg/kg i.p. daily
  glucose tolerance in STZ mice: significantly improved glucose tolerance
[3]; NeraCtr, 0 min, Mean
  ipGTT glucose: 59.25
[3]; NeraCtr, 0 min after glc, individual mice
  ipGTT glucose: 51 and 48 and 70 and 68
[3]; NeraCtr, 15 min, Mean
  ipGTT glucose: 210.75
[3]; NeraCtr, 15 min after glc, individual mice
  ipGTT glucose: 211 and 183 and 258 and 191
[3]; NeraCtr, 30 min, Mean
  ipGTT glucose: 316.5
[3]; NeraCtr, 30 min after glc, individual mice
  ipGTT glucose: 290 and 203 and 500 and 273
[3]; NeraCtr, 60 min, Mean
  ipGTT glucose: 219.25
[3]; NeraCtr, 60 min after glc, individual mice
  ipGTT glucose: 166 and 171 and 373 and 167
[3]; NeraCtr, 90 min, Mean
  ipGTT glucose: 134.5
[3]; NeraCtr, 90 min after glc, individual mice
  ipGTT glucose: 133 and 136 and 158 and 111
[3]; NeraCtr, 120 min, MEAN
  ipGTT glucose: 96
[3]; NeraCtr, 120 min after glc, individual mice
  ipGTT glucose: 91 and 96 and 116 and 81
[3]; NeraCtr, individual mice
  AUC ipGTT: 20407.5 and 18322.5 and 14535 and 19072.5
[3]; NeraSTZ, 0 min, mean line
  ipGTT glucose: 61.5
[3]; NeraSTZ, 0 min after glc, individual mice
  ipGTT glucose: 67 and 66 and 51 and 57 and 80 and 63 and 62 and 69 and 65 and 44
[3]; NeraSTZ, 15 min, mean line
  ipGTT glucose: 285.917
[3]; NeraSTZ, 15 min after glc, individual mice
  ipGTT glucose: 304 and 272 and 259 and 246 and 291 and 315 and 312 and 420 and 217 and 264
[3]; NeraSTZ, 30 min, mean line
  ipGTT glucose: 319.5
[3]; NeraSTZ, 30 min after glc, individual mice
  ipGTT glucose: 308 and 348 and 303 and 268 and 319 and 424 and 341 and 371 and 315 and 292 and 282 and 263
[3]; NeraSTZ, 60 min, mean line
  ipGTT glucose: 284.417
[3]; NeraSTZ, 60 min after glc, individual mice
  ipGTT glucose: 274 and 307 and 368 and 214 and 271 and 308 and 291 and 343 and 321 and 283 and 219
[3]; NeraSTZ, 90 min after glc, individual mice
  ipGTT glucose: 181 and 290 and 234 and 159 and 228 and 264 and 184 and 260 and 250 and 205 and 248 and 195
[3]; NeraSTZ, 120 min after glc, individual mice
  ipGTT glucose: 136 and 229 and 175 and 112 and 213 and 180 and 169 and 210 and 211 and 164 and 187
[3]; NeraSTZ, individual mice
  AUC ipGTT: 27682.5 and 33750 and 31770 and 23017.5 and 30135 and 34725 and 29565 and 36360 and 31732.5
[4]; 0 min after ins
  ipITT normalized to 100: 100
[4]; 15 min after ins
  ipITT normalized to 100: 132.381
[4]; 30 min after ins
  ipITT normalized to 100: 111.751
[4]; 60 min after ins
  ipITT normalized to 100: 88.1279
[4]; 90 min after ins
  ipITT normalized to 100: 87.8414
[4]; db/db
  basal glucose lower in neratinib-treated mice after a short fast of 4 h: 20%
  response to insulin challenge (ipITT): modestly reduced ability to lower their glucose levels
[4]; insert 8d, normalized to 100, individual mice
  AUC ipITT: 11197.2 and 9260.59 and 10559.8 and 6670.17 and 8196.06 and 9385.6
[4]; insert 8d, normalized to 100, mean
  MEAN AUC ipITT: 9211.58
[4]; time 0, MEAN
  ipITT: 336.667
[4]; time 0, individual mice
  ipITT: 327 and 354 and 301 and 357 and 292 and 389
[4]; time 15, MEAN
  ipITT: 444.667
[4]; time 15, individual mice
  ipITT: 477 and 480 and 417 and 432 and 371 and 491
[4]; time 30, MEAN
  ipITT: 371.5
[4]; time 30, individual mice
  ipITT: 455 and 383 and 437 and 224 and 323 and 407
[4]; time 60, MEAN
  ipITT: 297.167
[4]; time 60, individual mice
  ipITT: 397 and 342 and 303 and 176 and 182 and 383
[4]; time 90, MEAN
  ipITT: 295.833
[4]; time 90, individual mice
  ipITT: 324 and 270 and 290 and 289 and 230 and 372
[5]
  LPS-induced expression of TNFα, IL-1β, and IL-6: largely inhibited
[6]; WT mice, 4 h after i.p. injection
  neratinib in pancreatic tissue: clearly detected
[6]; db/db mice, 4-week daily i.p. injection
  neratinib signal in pancreas tissue sections: specific signal was obtained
[7]
  inhibition at 10 µM: 51%
[8]
  inhibition at 10 µM: 77%
[9]
  inhibition at 10 µM: 73%
[10]
  inhibition at 10 µM: -7%
[11]
  inhibition at 10 µM: 11%
[12]
  inhibition at 10 µM: 14%
